{"source": "patent US11591601B2", "about": "“Methods for identification and modification of lncRNA associated with target genotypes and phenotypes” (The Broad Institute, Inc., priority 2017, dated 2023)", "origin": "cited, not measured here", "data": [{"tested_on": "Factor VII", "conditions": "hepatocytes in vivo, Factor VII gene silencing model", "values": [{"compound": "1,2-dilinoleyloxy-keto-N,N-dimethyl-3-aminopropane [DLinKDMA]", "gene silencing potency series of LNP siRNA systems containing the lipid": "DLinKC2-DMA>DLinKDMA>DLinDMA>>DLinDAP"}, {"compound": "CCCCC/C=C\\C/C=C\\CCCCCCCC(=O)OCC(CN(C)C)OC(=O)CCCCCCC/C=C\\C/C=C\\CCCCC", "note": "(stereo not shown) [DLinDAP, 1,2-dilineoyl-3-dimethylammonium-propane]", "gene silencing potency series of LNP siRNA systems containing the lipid": "DLinKC2-DMA>DLinKDMA>DLinDMA>>DLinDAP"}, {"compound": "CCCCC/C=C\\C/C=C\\CCCCCCCCOCC(CN(C)C)OCCCCCCCC/C=C\\C/C=C\\CCCCC", "note": "(stereo not shown) [DLinDMA, 1,2-dilinoleyloxy-3-N,N-dimethylaminopropane]", "gene silencing potency series of LNP siRNA systems containing the lipid": "DLinKC2-DMA>DLinKDMA>DLinDMA>>DLinDAP"}, {"compound": "CCCCC/C=C\\C/C=C\\CCCCCCCCC1(CCCCCCCC/C=C\\C/C=C\\CCCCC)OCC(CCN(C)C)O1", "note": "(stereo not shown) [DLinKC2-DMA, 1,2-dilinoleyl-4-(2-dimethylaminoethyl)[1,3]-dioxolane]", "gene silencing potency series of LNP siRNA systems containing the lipid": "DLinKC2-DMA>DLinKDMA>DLinDMA>>DLinDAP"}]}]}
